In US10463632B2, “Method for treating a neurovascular complication of diabetes mellitus” (KING SAUD UNIVERSITY, priority 2016, dated 2019):

Tests used:
Assay type in all cases: in vivo, Sprague Dawley rats
cleaved caspase-3 = experiment: Western blot of retinal cleaved caspase-3 in diabetic rats; conditions: diabetic rat retinas, thymoquinone 2 mg/kg i.p. alternate days, three weeks; FIG. 1D
Protocol: (§1) Healthy Sprague Dawley rats (150-200 g) were used for the trials. Animals were issued from Central Animal House Facility of the College of Pharmacy, King Saud University and were kept in standard plastic animal cages in groups of 6 animals each with 12 hours light and dark cycle at 25±2° C. The rats were fed on standard rat chow and provided water ad libitum. The animals were acclimatized to laboratory conditions for a week prior to experiments. Diabetes was induced in overnight fasted rats by administration of Streptozotocin (STZ) at dose of 55 mg/kg intraperitoneally in citric acid buffer (pH 4.5). After one hour of STZ administration, the animals were allowed to feed ad libitum. […] Relevant biochemical parameters including serum creatinine, uric acid, alanine aminotransferase (ALT), aspartate aminotransferase (AST), alkaline phosphatase and bilirubin were assessed using colorimetric methods. […] After incubations with secondary antibodies, membranes were washed four times with TBS-T (5 min each) and the immunoreactivity of bands was visualized on a high-performance chemiluminescence machine by using enhanced chemiluminescence plus Luminol and quantified by densitometric analysis using image processing and analysis in GeneTools. As a control, the blots were stripped and detected with a mouse monoclonal anti-β-actin antibody (1:2000). […]

[1] = test system: Streptozotocin (STZ)-induced diabetic rats; experiment: Blood glucose concentration in STZ-induced diabetic rats with thymoquinone administration; conditions: TQ 2 mg/Kg intraperitoneally on alternate days
Protocol: (§2) Healthy Sprague Dawley rats (150-200 g) were used for the trials. Animals were issued from Central Animal House Facility of the College of Pharmacy, King Saud University and were kept in standard plastic animal cages in groups of 6 animals each with 12 hours light and dark cycle at 25±2° C. The rats were fed on standard rat chow and provided water ad libitum. The animals were acclimatized to laboratory conditions for a week prior to experiments. Diabetes was induced in overnight fasted rats by administration of Streptozotocin (STZ) at dose of 55 mg/kg intraperitoneally in citric acid buffer (pH 4.5). After one hour of STZ administration, the animals were allowed to feed ad libitum. The animals were kept under observation and fasting blood glucose levels were estimated […] 72 hours of STZ treatment. Animals showing blood glucose levels >350 mg/dl were considered as diabetic and were used for further trials. Diabetic rats were divided into two groups (10 rats per group) at random. Group I served as diabetic control. Group II were administered thymoquinone (2 mg/kg intraperitoneally) in alternate days for three weeks. Healthy rats were also kept as normal controls. Relevant biochemical parameters including serum creatinine, uric acid, alanine aminotransferase (ALT), aspartate aminotransferase (AST), alkaline phosphatase and bilirubin were assessed using colorimetric methods.

[2] = test system: brain derived neurotrophic factor (BDNF); experiment: Western blot of retinal BDNF expression in diabetic rats; conditions: diabetic rat retinas, thymoquinone 2 mg/kg i.p. alternate days, three weeks; FIG. 1A
Protocol: as §1

[3] = test system: Streptozotocin (STZ)-induced diabetic rats; experiment: Kidney and liver function tests (colorimetric serum biochemistry) in STZ-induced diabetic rats
Protocol: as §2

[4] = test system: Blood-Retinal Barrier in STZ-Induced Diabetic Rats; experiment: Measurement of Blood Retinal Barrier (BRB) breakdown with FITC-conjugated dextran; conditions: thymoquinone 2 mg/kg on alternate days, compared with diabetic retinas, FIG. 3
Protocol: Healthy Sprague Dawley rats (150-200 g) were used for the trials. Animals were issued from Central Animal House Facility of the College of Pharmacy, King Saud University and were kept in standard plastic animal cages in groups of 6 animals each with 12 hours light and dark cycle at 25±2° C. The rats were fed on standard rat chow and provided water ad libitum. The animals were acclimatized to laboratory conditions for a week prior to experiments. Diabetes was induced in overnight fasted rats by administration of Streptozotocin (STZ) at dose of 55 mg/kg intraperitoneally in citric acid buffer (pH 4.5). After one hour of STZ administration, the animals were allowed to feed ad libitum. […] Relevant biochemical parameters including serum creatinine, uric acid, alanine aminotransferase (ALT), aspartate aminotransferase (AST), alkaline phosphatase and bilirubin were assessed using colorimetric methods. Rat retinas were analyzed for Blood Retinal Barrier (BRB) breakdown after 3 weeks of thymoquinone dosing using fluorescein isothiocyanate (FITC)-conjugated dextran as previously described in the prior art. […] Fluorescence was measured using a Spectra Max Gemini-XPS with excitation and emission wavelengths of 485 nm and 538 nm, respectively, with PBS as a blank. Blood retinal barrier breakdown was calculated using the following equation (1) with the results being expressed in μL g^−1 hr^−1. […]

[5] = test system: nerve growth factor receptor (NGFR); experiment: Western blot of retinal NGFR expression in diabetic rats; conditions: diabetic rat retinas, thymoquinone 2 mg/kg i.p. alternate days, three weeks; FIG. 1C
Protocol: as §1

[6] = test system: tyrosine hydroxylase (TH); experiment: Western blot of retinal tyrosine hydroxylase expression in diabetic rats; conditions: diabetic rat retinas, thymoquinone 2 mg/kg i.p. alternate days, three weeks; FIG. 1B
Protocol: as §1

[7] = test system: reactive oxygen species (ROS); experiment: Reactive Oxygen Species (ROS) measurement in retinal tissue homogenates (DCF fluorescence); conditions: retinas of diabetic animals treated with thymoquinone; FIG. 2
Protocol: as §2, with “Animals showing blood glucose levels >350 mg/dl were considered as diabetic and were used for further trials. Diabetic rats were divided into two groups (10 rats per group) at random. Group I served as diabetic control. Group II were administered thymoquinone (2 mg/kg intraperitoneally) in alternate days for three weeks. Healthy rats were also kept as normal controls.” left out
Reactive Oxygen Species (ROS) generation was measured in retinal tissue homogenates using a 2′,7′-dichlorofluorescein-diacetate (DCHFDA) as is known in the art. […] Fluorescence was measured using a SpectraMax Gemini-XPS every 15 min for 1 hour with excitation and emission wavelengths of 488 nm and 525 nm, respectively.

[8] = diabetic rats treated with TQ 2 mg/kg i.p. on alternate days for three weeks

SMILES: CC1=CC(=O)C(C(C)C)=CC1=O [thymoquinone, 2-Isopropyl-5-methylbenzo-1,4-quinone]
- retinal cleaved caspase-3 (diabetes-induced up-regulation of about 52%) (cleaved caspase-3): normalized
- Glucose Concentration ([1]; after 7 days of TQ treatment): 580.58 ± 2.40 mg/dL
- Glucose Concentration ([1]; after 14 days of TQ treatment): 559.55 ± 1.29 mg/dL
- Glucose Concentration ([1]; after 21 days of TQ treatment): 495.10 ± 5.71 mg/dL
- retinal BDNF expression (diabetes-induced down-regulation of about 65%) [2]: normalized
- kidney and liver function tests versus untreated diabetic animals ([3]; diabetic rats that received thymoquinone): more normal
- ALKALINE Phos [3, 8]: 179.08 ± 4.51 U/l
- ALT [3, 8]: 134.43 ± 5.21 U/l
- AST [3, 8]: 138.48 ± 2.94 U/l
- Bilirubin [3, 8]: 3.23 ± 0.04 mg/dL
- Creatinine [3, 8]: 0.62 ± 0.05 mg/dL
- Uric acid [3, 8]: 4.99 ± 0.07 mg/dL
- effect of diabetes on BRB breakdown (retinal vascular permeability) [4]: significantly attenuated
- retinal NGFR expression (diabetes-induced increase of about 75%) [5]: normalized
- retinal TH levels (diabetes-induced decrease of about 32%) [6]: normalized
- ROS generation (DCF retinal levels) [7]: significantly attenuated
